Results as given in PMC13091788 (NPJ Aging, 2026).

What was measured:
[1] = test system: MITOL and mitochondrial proteins in C2C12 myoblasts; test: Western blot of mitochondrial proteins in C2C12 myoblasts; assay type: cell-based, mouse; conditions: 48 h; for levels of Tom20, Mfn2, HSP60 and ATP5a proteins / protein level of MITOL: C2C12, 5 μM or 10 μM
Experimental: (§1) Murine myoblast C2C12 cells were used for various cellular experiments in this study. Two different sources of C2C12 cells were used depending on the experiment: C2C12 cells obtained from RIKEN BRC (RCB0987) were used for gene expression, mtDNA quantification, and mitochondrial morphology analysis; C2C12 cells from ATCC (CRL-1772) were used for OCR analysis. Cells were cultured in Dulbecco’s Modified Eagle Medium (DMEM; Sigma-Aldrich or Nacalai Tesque), supplemented with 10% FBS and 1% penicillin–streptomycin. Cells were maintained in a humidified incubator at 37°C with 5% CO2.
(§2) For cellular experiments, berberine or quinoid-type berberrubine (Q-BRB) was dissolved in DMSO, and berberrubine acetic acid adduct (AcA-BRB) was dissolved in distilled H2O. Each compound was diluted in culture medium to the indicated final concentrations.
Proteins in sample buffer were separated by SDS-PAGE and transferred to Immobilon-P PVDF membranes (IPVH00010, Millipore). Blots were probed with the indicated antibodies, and protein bands on the blot were visualized using Chemi-Lumi One L (07880-70, Nacalai Tesque) or Immobilon Western Chemiluminescent HRP Substrate (WBKLS0500, Millipore). Band images were captured using a LuminoGraph I imager (WSE-6100, ATTO). Relative band intensities were quantified using Fiji/ImageJ software. Unprocessed western blot images corresponding to the data presented in the main and supplementary figures are provided in Supplementary Figures 11–16.

[2] = test system: MITOL and Tom20 mRNA in C2C12 cells; test: qRT-PCR analysis of C2C12 cells; assay type: cell-based, mouse; conditions: C2C12, 5 μM or 10 μM
Experimental: as §1, §2
Total RNA was extracted from C2C12 cells using an RNA extraction kit (RNeasy Mini Kit, Qiagen). After washing with PBS, cells were collected by trypsinization and centrifugation at 500 × g for 5 min, and the pellet was lysed according to the manufacturer’s instructions. The extracted RNA was reverse-transcribed into cDNA using a reverse transcription kit (ReverTra Ace, TOYOBO). Quantitative real-time PCR was performed using a qPCR master mix (KAPA SYBR FAST qPCR Master Mix (2X) Kit, KAPABIOSYSTEMS) and a thermal cycler (StepOnePlus, Applied Biosystems). Gene expression levels were normalized to GAPDH. Primer sets used for qRT-PCR are listed in Supplementary Table 1.

C2C12 myoblasts = test: Oxygen consumption analysis of C2C12 cells (Seahorse); assay type: cell-based, mouse; conditions: C2C12, 30 μM, 24 h, vs solvent control
Experimental: as §1
To generate mMITOL-knockout C2C12 cells, CRISPR-Cas9 vectors were constructed. […]
The oxygen consumption rate (OCR) of C2C12 myoblasts and H9c2 cardiomyocytes were measured using a Seahorse XFe24 Analyzer and the Seahorse XF Cell Mito Stress Test Kit (Agilent Technologies), as well as a Seahorse XF HS Mini Analyzer and the Seahorse XFp Cell Mito Stress Test Kit (Agilent Technologies), according to the manufacturer’s protocol. […] The assay was performed at 37 °C, and OCR was measured at baseline and after sequential injections of the following compounds: oligomycin (Oligo; 1 μM), FCCP (0.5 μM), and a mixture of rotenone and antimycin A (Rot/Anti; 0.5 μM each). […] Non-mitochondrial respiration was defined as the OCR measured after the injection of rotenone and antimycin A.

[3] = Water solubility, roughly examined; assay type: physicochemical
Experimental: Finally, we compared the water solubility of the three berberrubine forms. The solubility of three compounds, the reddish-black solid (quinoid-type berberrubine), the reddish-brown solid (berberrubine acetic acid salt), and the yellow solid (berberrubine acetic acid adduct), in water was roughly examined. […] On the other hand, the reddish-brown solid dissolved in about 30 mg in 1 mL of water.

[4] = Hepatic microsomal stability assay, mouse; assay type: in vitro ADME; conditions: CLint, 1 μM, 0.2 mg/mL microsomes, NADPH, 30 min
Experimental: Disappearance of the parent compound over time was measured by using the amount of drug at time zero as a reference. After 5 min of preincubation, 1 mM NADPH (final concentration; the same applies to the following) was added to a mixture containing 1 μM of the compound, 0.2 mg/mL of human or mouse liver microsomes (Sekisui XenoTech), 1 mM EDTA and 0.1 M phosphate buffer (pH 7.4). The mixture solution was incubated at 37 °C for 30 min with rotation at 60 rpm. An aliquot of 50 μL of the incubation mixture was added to 250 μL of chilled acetonitrile/internal standard (IS, methyltestosterone). After centrifugation at 3150 × g for 15 min at 4 °C, the supernatants were analyzed by LC-MS/MS. Hepatic microsomal stability (mL/min/kg, CLint) was calculated according to a previous report, using 48.8 (human) or 45.4 (mouse) mg MS protein/g liver and 25.7 (human) or 87.5 (mouse) g liver/kg body weight as scaling factors. Two technical replicates were performed.

SMILES	levels of Tom20, Mfn2, HSP60 and ATP5a proteins [1]	protein level of MITOL [1]	mRNA levels of MITOL and Tom20 [2]	OCR: basal respiration, ATP synthesis-linked respiration and maximal respiration (C2C12 myoblasts)	solubility ([3]; roughly examined) [mg/mL]	Liver microsomal metabolic stability mouse (pH7.4) [4] [mL/min/kg]	dissolution in 1000 mL of water [3]	MITOL expression (western blot) ([1]; C2C12, 10 μM, berberrubine used as quinoid-type form)	expression of other mitochondrial-associated proteins (Tom20, Mfn2, HSP60, ATP5a) ([1]; C2C12, 10 μM, quinoid-type form)	protein levels of OPA1, Fis1 and MFF ([1]; C2C12, Q-BRB or AcA-BRB 10 μM)
COc1ccc2cc3[n+](cc2c1O)CCc1cc2c(cc1-3)OCO2 [AcA-BRB, berberrubine acetic acid adduct]	dose-dependent trend in elevating	significantly increased	increased	significantly increased	≥ 1000	1794	–	–	–	–
COc1ccc2cc3n(cc-2c1=O)CCc1cc2c(cc1-3)OCO2 [Q-BRB, quinoid-type berberrubine]	dose-dependent trend in elevating	significantly increased	increased	significantly increased	–	1839	not possible to observe any dissolution	–	–	–
COc1ccc2cc3[n+](cc2c1O)CCc1cc2c(cc1-3)OCO2 [berberrubine]	–	–	–	–	–	–	did not dissolve	significantly upregulated	markedly increased	increased
